Measurements published in patent US8791264B2 (Purdue Pharma L.P., priority 2006, dated 2014).

Molecular target: T1, N-type calcium channel (NTCC) (Homo sapiens, UniProt Q00975)
T1 construct: host or cells: IMR32 cells differentiated with dibutyryl cAMP and bromodeoxyuridine
Assay: FLIPR calcium mobilization assay for N-type calcium channel
Assay type: cell-based
Conditions: calcium mobilization in vitro assay; differentiated IMR32 cells
Procedure: Unless noted otherwise, cell culture reagents were purchased from Mediatech of Herndon, Md. IMR32 cells (American Type Culture Collection, ATCC, Manassas, Va.) were routinely cultured in growth medium consisting of minimum essential medium containing 10% fetal bovine serum (FBS, Hyclone, Logan, Utah), 100 U/mL penicillin, 100 μg/mL streptomycin, 2 mM L-glutamine, 1 mM sodium pyruvate, and 1× MEM non-essential amino acids. 80-90% confluent flasks of cells were differentiated using the following differentiation medium: Growth medium plus 1 mM dibutyryl cyclic AMP (Sigma, St. Louis, Mo.), and 2.5 μM bromodeoxyuridine (Sigma). Cells were differentiated for 8 days by replacing differentiation medium every 2-3 days.
FLIPR Calcium Mobilization Assay for N-Type Calcium Channel.
One day prior to performing this assay, differentiated IMR32 cells were treated with 1× CellStripper, and seeded on poly-D-lysine-coated 96-well clear-bottom black plates (Becton Dickinson, Franklin Lakes, N.J.) at 200,000 cells/well. On the day of the assay, the cell plates were washed with IMR32 buffer (127 mM NaCl, 1 mM KCl, 2 mM MgCl2, 700 μM NaH2PO4, 5 mM CaCl2, 5 mM NaHCO3, 8 mM HEPES, 10 mM glucose, pH 7.4), then pre-stimulated with KCl and loaded as follows: 0.05 mL of IMR32 buffer, 0.05 mL of each compound tested diluted in IMR32 buffer containing 20 μM nitrendipine (Sigma), and 0.1 mL KCl dissolved in IMR32 buffer, plus Fluo-4 were added (3 μM final concentration, Molecular Probes, Eugene, Oreg.). Final test compound concentrations ranged from about 846 pM to about 17 μM, final nitrendipine concentration was 5 μM, and final KCl concentration was 90 mM. After 1 hour, the cells were washed twice with 0.05 mL of each compound is tested in nitrendipine-containing IMR32 buffer (no KCl or Fluo-4), and then replaced with 0.1 mL of each compound tested in nitrendipine-containing IMR32 buffer. Plates were then transferred to a Fluorimetric Imaging Plate Reader (FLIPR^96, Molecular Devices, Inc., Sunnyvale, Calif.) for assay. The FLIPR measured basal Fluo-4 fluorescence for 315 seconds (i.e., 5 minutes and 15 seconds), then added 0.1 mL KCl agonist dissolved in IMR32 buffer and measured fluorescence for another 45 seconds. Final test compound concentrations on the cells after FLIPR read ranged from about 846 pM to about 17 μM, final nitrendipine concentration was 5 μM, and final KCl concentration was 90 mM. Data were collected over the entire time course and analyzed using Excel, Graph Pad Prism (version 3.02, Graph Pad, San Diego, Calif.), or an in-house non-linear regression analysis software.

T1 sequence (Q00975 whole entry): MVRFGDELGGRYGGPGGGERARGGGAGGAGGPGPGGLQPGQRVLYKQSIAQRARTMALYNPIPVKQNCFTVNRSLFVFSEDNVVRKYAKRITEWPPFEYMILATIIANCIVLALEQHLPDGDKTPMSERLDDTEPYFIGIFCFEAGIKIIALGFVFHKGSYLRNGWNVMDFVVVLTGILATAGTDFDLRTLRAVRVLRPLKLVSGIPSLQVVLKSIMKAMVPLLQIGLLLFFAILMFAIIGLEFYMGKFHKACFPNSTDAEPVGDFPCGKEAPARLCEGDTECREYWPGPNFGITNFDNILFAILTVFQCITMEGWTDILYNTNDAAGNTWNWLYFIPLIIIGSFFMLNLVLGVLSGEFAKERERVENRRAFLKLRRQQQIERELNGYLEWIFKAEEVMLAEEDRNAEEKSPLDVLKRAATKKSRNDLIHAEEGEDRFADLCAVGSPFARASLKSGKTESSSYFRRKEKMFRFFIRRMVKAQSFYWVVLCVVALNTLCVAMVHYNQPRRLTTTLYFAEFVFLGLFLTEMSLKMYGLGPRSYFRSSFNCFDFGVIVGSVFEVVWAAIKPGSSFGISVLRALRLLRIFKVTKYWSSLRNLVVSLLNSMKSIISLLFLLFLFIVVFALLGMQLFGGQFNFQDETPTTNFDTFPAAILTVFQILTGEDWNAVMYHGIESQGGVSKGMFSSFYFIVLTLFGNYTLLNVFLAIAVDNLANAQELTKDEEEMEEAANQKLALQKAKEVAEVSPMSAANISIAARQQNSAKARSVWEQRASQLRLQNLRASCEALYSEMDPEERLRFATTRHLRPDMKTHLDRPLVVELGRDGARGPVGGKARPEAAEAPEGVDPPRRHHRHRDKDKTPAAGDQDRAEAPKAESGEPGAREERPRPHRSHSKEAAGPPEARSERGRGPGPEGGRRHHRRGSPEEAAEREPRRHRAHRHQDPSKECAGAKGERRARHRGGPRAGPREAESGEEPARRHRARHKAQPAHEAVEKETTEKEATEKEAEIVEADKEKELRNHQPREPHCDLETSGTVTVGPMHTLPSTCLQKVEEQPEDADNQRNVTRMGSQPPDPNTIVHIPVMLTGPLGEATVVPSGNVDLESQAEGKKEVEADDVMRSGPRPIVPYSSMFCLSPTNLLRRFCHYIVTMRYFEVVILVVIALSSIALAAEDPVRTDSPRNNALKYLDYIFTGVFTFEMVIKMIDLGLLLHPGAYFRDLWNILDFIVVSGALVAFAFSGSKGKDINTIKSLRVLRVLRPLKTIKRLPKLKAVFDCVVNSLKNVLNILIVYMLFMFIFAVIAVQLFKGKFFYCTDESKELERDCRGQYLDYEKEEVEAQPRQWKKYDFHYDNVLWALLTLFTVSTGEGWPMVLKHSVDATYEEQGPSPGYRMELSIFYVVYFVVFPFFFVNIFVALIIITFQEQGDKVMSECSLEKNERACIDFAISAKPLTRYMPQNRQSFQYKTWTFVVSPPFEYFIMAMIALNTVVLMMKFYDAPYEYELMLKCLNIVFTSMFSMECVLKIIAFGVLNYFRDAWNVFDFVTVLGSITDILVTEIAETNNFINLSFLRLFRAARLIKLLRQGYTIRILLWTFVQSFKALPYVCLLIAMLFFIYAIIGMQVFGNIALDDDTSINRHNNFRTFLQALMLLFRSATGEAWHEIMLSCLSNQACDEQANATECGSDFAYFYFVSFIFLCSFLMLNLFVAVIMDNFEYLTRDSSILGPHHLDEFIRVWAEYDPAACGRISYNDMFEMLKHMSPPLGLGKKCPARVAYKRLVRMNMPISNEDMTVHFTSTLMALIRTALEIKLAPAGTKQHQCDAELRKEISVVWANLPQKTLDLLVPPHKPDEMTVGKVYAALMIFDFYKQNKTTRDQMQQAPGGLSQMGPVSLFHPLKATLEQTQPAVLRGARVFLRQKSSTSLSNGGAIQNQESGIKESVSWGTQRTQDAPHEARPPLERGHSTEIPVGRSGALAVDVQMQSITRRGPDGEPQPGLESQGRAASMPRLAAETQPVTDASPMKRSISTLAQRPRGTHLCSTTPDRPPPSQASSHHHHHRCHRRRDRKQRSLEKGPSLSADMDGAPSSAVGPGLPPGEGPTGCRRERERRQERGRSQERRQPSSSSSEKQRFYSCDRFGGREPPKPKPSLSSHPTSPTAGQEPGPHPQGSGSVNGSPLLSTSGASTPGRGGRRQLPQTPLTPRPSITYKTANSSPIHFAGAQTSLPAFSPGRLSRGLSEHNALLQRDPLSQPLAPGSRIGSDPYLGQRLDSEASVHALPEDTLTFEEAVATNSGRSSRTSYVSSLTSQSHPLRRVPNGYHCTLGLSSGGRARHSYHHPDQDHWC
T1 sequence (P54289 25-956 partner limits assumed): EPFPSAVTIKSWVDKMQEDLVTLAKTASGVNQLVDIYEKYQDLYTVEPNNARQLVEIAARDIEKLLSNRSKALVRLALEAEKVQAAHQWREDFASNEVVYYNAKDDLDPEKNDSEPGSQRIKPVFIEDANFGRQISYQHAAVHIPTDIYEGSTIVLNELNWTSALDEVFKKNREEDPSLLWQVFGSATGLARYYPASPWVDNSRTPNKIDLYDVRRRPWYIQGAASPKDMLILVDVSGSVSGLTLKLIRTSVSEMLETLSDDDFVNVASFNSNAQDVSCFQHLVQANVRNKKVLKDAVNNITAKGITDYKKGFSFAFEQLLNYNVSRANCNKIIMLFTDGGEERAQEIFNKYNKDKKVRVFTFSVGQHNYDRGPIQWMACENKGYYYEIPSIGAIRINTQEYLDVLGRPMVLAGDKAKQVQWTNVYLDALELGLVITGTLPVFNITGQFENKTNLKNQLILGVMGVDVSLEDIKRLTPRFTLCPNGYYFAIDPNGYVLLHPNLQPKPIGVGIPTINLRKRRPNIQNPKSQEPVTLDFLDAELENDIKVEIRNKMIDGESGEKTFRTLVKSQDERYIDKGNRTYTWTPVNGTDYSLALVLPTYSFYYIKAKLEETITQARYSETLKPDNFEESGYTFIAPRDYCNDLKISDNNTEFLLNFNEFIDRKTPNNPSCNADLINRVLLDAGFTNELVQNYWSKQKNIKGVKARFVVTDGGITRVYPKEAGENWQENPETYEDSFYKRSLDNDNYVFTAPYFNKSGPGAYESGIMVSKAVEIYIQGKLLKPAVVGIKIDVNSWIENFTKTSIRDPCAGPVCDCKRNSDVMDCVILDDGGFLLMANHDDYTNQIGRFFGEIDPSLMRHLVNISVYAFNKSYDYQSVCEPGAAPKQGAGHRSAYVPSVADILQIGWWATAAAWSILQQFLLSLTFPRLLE
T1 sequence (P54289 957-1103 partner limits assumed): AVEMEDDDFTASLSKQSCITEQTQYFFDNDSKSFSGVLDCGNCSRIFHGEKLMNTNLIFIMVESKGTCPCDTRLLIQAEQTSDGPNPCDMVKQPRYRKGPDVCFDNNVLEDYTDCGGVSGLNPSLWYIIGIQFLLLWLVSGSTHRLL
T1 sequence (P54284 whole entry partner): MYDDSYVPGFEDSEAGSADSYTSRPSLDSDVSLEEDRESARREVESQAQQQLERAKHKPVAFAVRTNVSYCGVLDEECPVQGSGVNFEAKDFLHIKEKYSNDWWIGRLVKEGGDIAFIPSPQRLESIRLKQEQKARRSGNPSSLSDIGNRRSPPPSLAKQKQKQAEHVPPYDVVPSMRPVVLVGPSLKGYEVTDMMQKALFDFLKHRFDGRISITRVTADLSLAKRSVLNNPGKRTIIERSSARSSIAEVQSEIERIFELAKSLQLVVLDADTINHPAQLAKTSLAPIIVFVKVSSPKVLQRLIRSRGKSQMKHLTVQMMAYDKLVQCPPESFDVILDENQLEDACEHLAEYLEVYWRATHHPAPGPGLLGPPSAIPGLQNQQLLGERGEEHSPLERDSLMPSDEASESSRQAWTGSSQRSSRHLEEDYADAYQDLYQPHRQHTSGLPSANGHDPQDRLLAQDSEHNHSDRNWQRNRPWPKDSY

| Compound | IC50 |
| --- | --- |
| CC(C)CNC(=O)CN1CCC(N(C)S(=O)(=O)c2ccccc2)CC1 [2-[4-(benzenesulfonyl-methyl-amino)-piperidin-1-yl]-N-isobutyl-acetamide] | > 20000 nM |
| CC(C)NC(=O)C(=O)N1CCC(N(C2CC2)S(=O)(=O)c2cccc(C(F)(F)F)c2)CC1 [2-{4-[cyclopropyl-(3-trifluoromethylbenzenesulfonyl)-amino]-piperidin-1-yl}-N-isopropyl-2-oxo-acetamide] | 3200 nM |
| CN(C1CCN(C(=O)CC(=O)Nc2ccc(F)cc2F)CC1)S(=O)(=O)c1cccc(C(F)(F)F)c1 [Compound 28, N-(2,4-Difluorophenyl)-3-{4-[methyl-(3-trifluoromethylbenzene-sulfonyl)amino]-piperidin-1-yl}-3-oxo-propionamide] | 4900 nM |
| O=C(CC(=O)N1CCC(N(C2CC2)S(=O)(=O)c2cccc(Cl)c2)CC1)Nc1ccc(F)cc1F [Compound 29, 3-{4-[(3-Chlorobenzenesulfonyl)-cyclopropylamino]-piperidin-1-yl}-N-(2,4-difluorophenyl)-3-oxo-propionamide] | 8860 nM |
| CC(C)N(C1CCN(CC(N)=O)CC1)S(=O)(=O)c1cccc(C(F)(F)F)c1 [Compound 33, 2-{4-[Isopropyl-(3-trifluoromethylbenzenesulfonyl)amino]-piperidin-1-yl}-acetamide] | 10000 to 20000 nM |
| Cc1cccc(S(=O)(=O)N(C2CC2)C2CCN(CC(=O)NCC(C)C)CC2)c1 [Compound 35, 2-{4-[Cyclopropyl-(toluene-3-sulfonyl)amino]-piperidin-1-yl}-N-isobutylacetamide] | 5930 nM |
| CC(C)CNC(=O)CN1CCC(N(C2CC2)S(=O)(=O)c2cccc(F)c2)CC1 [Compound 36, 2-{4-[Cyclopropyl-(3-fluorobenzenesulfonyl)amino]-piperidin-1-yl}-N-isobutylacetamide] | 8000 nM |
| CC(C)CNC(=O)CN1CCC(N(C2CC2)S(=O)(=O)c2ccccc2)CC1 [Compound 37, 2-[4-(Benzenesulfonyl-cyclopropylamino)-piperidin-1-yl]-N-isobutylacetamide] | > 20000 nM |
| O=C(CN1CCC(N(C2CC2)S(=O)(=O)c2ccc(Cl)cc2)CC1)Nc1cc(C(F)(F)F)cc(C(F)(F)F)c1 [Compound 67, N-(3,5-Bis-trifluoromethylphenyl)-2-{4-[(4-chlorobenzenesulfonyl)-cyclopropylamino]-piperidin-1-yl}-acetamide] | 4170 nM |
| Cc1cccc(S(=O)(=O)N(C2CC2)C2CCN(CC(=O)Nc3cc(C(F)(F)F)cc(C(F)(F)F)c3)CC2)c1 [Compound 69, N-(3,5-Bis-trifluoromethylphenyl)-2-{4-[cyclopropyl-(toluene-3-sulfonyl)amino]-piperidin-1-yl}-acetamide] | 3810 nM |
| O=C(CN1CCC(N(C2CC2)S(=O)(=O)c2cccc(C(F)(F)F)c2)CC1)Nc1ccc(C(F)(F)F)cc1C(F)(F)F [Compound 72, N-(2,4-Bis-trifluoromethylphenyl)-2-{4-[cyclopropyl-(3-trifluoromethylbenzenesulfonyl)amino]-piperidin-1-yl}-acetamide] | > 20000 nM |
| O=C(CN1CCC(N(C2CC2)S(=O)(=O)c2cccc(C(F)(F)F)c2)CC1)Nc1cc(C(F)(F)F)ccc1Cl [Compound 77, N-(2-Chloro-5-trifluoromethylphenyl)-2-{4-[cyclopropyl-(3-trifluoromethylbenzenesulfonyl)amino]-piperidin-1-yl}-acetamide] | 6630 nM |
| COc1ccc(Cl)cc1NC(=O)CN1CCC(N(C2CC2)S(=O)(=O)c2cccc(C(F)(F)F)c2)CC1 [Compound 82, N-(5-Chloro-2-methoxyphenyl)-2-{4-[cyclopropyl-(3-trifluoromethyl-benzenesulfonyl)amino]-piperidin-1-yl}-acetamide] | 3990 nM |

Compounds with a lower IC50, results first:

| IC50 | Compound |
| --- | --- |
| 2950 nM | 2-[4-(Benzenesulfonylmethylamino)-piperidin-1-yl]-N-(4-fluorophenyl)acetamide [Compound 47] |
| 1680 nM | CC(C)N(C1CCN(C(=O)CNc2ccc(F)cc2)CC1)S(=O)(=O)c1cccc(C(F)(F)F)c1 [Compound 17, N-{1-[2-(4-Fluorophenylamino)acetyl]-piperidin-4-yl}-N-isopropyl-3-trifluoromethylbenzenesulfonamide] |
| 1330 nM | O=C(CC(=O)N1CCC(N(C2CC2)S(=O)(=O)c2cccc(C(F)(F)F)c2)CC1)Nc1ccc(F)cc1F [Compound 27, 3-{4-[Cyclopropyl-(3-trifluoromethylbenzenesulfonyl)amino]-piperidin-1-yl}-N-(2,4-difluorophenyl)-3-oxo-propionamide] |
| 1130 nM | Cc1cccc(C)c1NC(=O)CN1CCC(N(C(C)C)S(=O)(=O)c2cccc(C(F)(F)F)c2)CC1 [Compound 42a, N-(2,6-Dimethylphenyl)-2-{4-[isopropyl-(3-trifluoromethylbenzenesulfonyl)amino]-piperidin-1-yl}-acetamide] |
| 1630 nM | Cc1ccc(NC(=O)CN2CCC(N(C(C)C)S(=O)(=O)c3cccc(C(F)(F)F)c3)CC2)cc1 [Compound 42e, 2-{4-[Isopropyl-(3-trifluoromethylbenzenesulfonyl)amino]-piperidin-1-yl}-N-p-tolyl-acetamide] |
| 1390 nM | Cc1cccc(S(=O)(=O)N(C2CC2)C2CCN(CC(=O)Nc3ccc(F)cc3)CC2)c1 [Compound 45, 2-{4-[Cyclopropyl-(toluene-3-sulfonyl)amino]-piperidin-1-yl}-N-(4-fluorophenyl)acetamide] |
| 2030 nM | O=C(CN1CCC(N(C2CC2)S(=O)(=O)c2cccc(F)c2)CC1)Nc1ccc(F)cc1 [Compound 46, 2-{4-[Cyclopropyl-(3-fluorobenzenesulfonyl)amino]-piperidin-1-yl}-N-(4-fluorophenyl)acetamide] |
| 2260 nM | O=C(CN1CCC(N(C2CC2)S(=O)(=O)c2ccccc2)CC1)Nc1ccc(F)cc1 [Compound 48, 2-[4-(Benzenesulfonylcyclopropylamino)-piperidin-1-yl]-N-(4-fluorophenyl)acetamide] |
| 1310 nM | O=C(CN1CCC(N(C2CC2)S(=O)(=O)c2ccc(Cl)cc2)CC1)Nc1ccc(F)cc1 [Compound 49, 2-{4-[(4-Chlorobenzenesulfonyl)cyclopropylamino]-piperidin-1-yl}-N-(4-fluorophenyl)acetamide] |
| 2160 nM | CN(C1CCN(CC(=O)Nc2nc3ccc(F)cc3s2)CC1)S(=O)(=O)c1cccc(C(F)(F)F)c1 [Compound 65] |
| 2530 nM | O=C(CN1CCC(N(C2CC2)S(=O)(=O)c2cccc(Cl)c2)CC1)Nc1cc(C(F)(F)F)cc(C(F)(F)F)c1 [Compound 66, N-(3,5-Bis-trifluoromethylphenyl)-2-{4-[(3-chlorobenzenesulfonyl)-cyclopropylamino]-piperidin-1-yl}-acetamide] |
| 1590 nM | CN(C1CCN(CC(=O)Nc2cc(C(F)(F)F)cc(C(F)(F)F)c2)CC1)S(=O)(=O)c1ccccc1 [Compound 68, 2-[4-(Benzenesulfonyl-methyl-amino)-piperidin-1-yl]-N-(3,5-bis-trifluoromethylphenyl)-acetamide] |
| 1830 nM | O=C(CN1CCC(N(C2CC2)S(=O)(=O)c2cccc(C(F)(F)F)c2)CC1)Nc1ccc(Cl)cc1OC(F)(F)F [Compound 76, N-(4-Chloro-2-trifluoromethoxyphenyl)-2-{4-[cyclopropyl-(3-trifluoromethylbenzenesulfonyl)amino]-piperidin-1-yl}-acetamide] |
